Data set [1] is described as follows: Kinetic solubility assay (HPLC external standard). The note with it: PBS pH 7.4 with 2% DMSO, PBS pH 7.4, 2% DMSO, 37° C. In kind it is physicochemical. The protocol:
This kinetic solubility assay assesses our compounds in pH 7.4 PBS, mimicking physiological conditions relevant to oral absorption and tumor targeting. Test solutions were prepared by mixing 10 μL of stock with 490 μL of PBS (pH 7.4, 2% DMSO), followed by shaking at 37° C. for 3 hours, centrifugation, and a 2× dilution with methanol. Solubility was quantified in μM using HPLC analysis on a C18 column at 35° C., with a 5-85% acetonitrile gradient and 20 μL injections, performed in duplicate.
The assay was conducted using a modified HPLC-based external standard method. For Solution Preparation, (1) Buffer: Phosphate-buffered saline (PBS) at pH 7.4; (2) Compound Stock Solutions: 10 mM concentration in DMSO; (3) Test Solutions: Mix 10 μL of the stock solution with 490 μL of PBS in a 2 mL EP tube (final 2% DMSO v/v), shake at 37° C. for 3 hours, centrifuge at 12,000 RPM for 5-10 minutes, take 100 μL of supernatant, add 100 μL methanol, mix well to use as the test solution. […] For Data Analysis, concentration calculations are based on peak area ratios, accounting for the 2× dilution factor.

In the next data set the test system is mice. The following applies: doses as low as 10 mg/kg; cited from earlier work.
For the next data set, the system named is rats. The following applies: doses as low as 10 mg/kg; cited from earlier work.

Structures are written as SMILES. In brackets after ≈: the same amount, converted by molar mass.

With `CNCC[C@@H](Oc1cc(Cl)cc2[nH]cnc12)c1ccccc1` [GT-6058, (R)-3-((6-chloro-1H-benzo[d]imidazol-4-yl)oxy)—N-methyl-3-phenylpropan-1-amine], the concentration in solution in data set [1] (solubility at 3 h) was 177 µM (≈ 55.8 µg/mL).
On the same count and under the same terms, for `CNCC[C@@H](Oc1cc(Cl)cc2[nH]ncc12)c1ccccc1` [GT-6059, (R)-3-((6-chloro-1H-indazol-4-yl)oxy)—N-methyl-3-phenylpropan-1-amine] the value was 169 µM (≈ 53.5 µg/mL).
Same read-out and setting: for `NCC[C@@H](Oc1cc(Cl)cc2[nH]cnc12)c1ccccc1` [GT-6041, (R)-3-((6-chloro-1H-benzo[d]imidazol-4-yl)oxy)-3-phenylpropan-1-amine] the value was 157 µM (≈ 47.3 µg/mL).
On to `N=C(N)SCCc1ccc(CCSC(=N)N)cc1` [PBIT, S,S′-1,4-phenylene-bis(1,2-ethanediyl)bis-isothiourea], for which the acute toxicity result in the data set on mice and in the data set on rats was “acutely toxic” throughout.
Consider `OCCNCC[C@@H](Oc1cc(Cl)cc2[nH]cnc12)c1ccccc1` [GT-6060, (R)-2-((3-((6-chloro-1H-benzo[d]imidazol-4-yl)oxy)-3-phenylpropyl)amino) ethan-1-ol], for which, in data set [1], the concentration in solution (solubility at 3 h) came to 176 µM (≈ 60.8 µg/mL).
Still for that read-out and setting: then `NCC[C@@H](Oc1cc(Cl)cc2[nH]ncc12)c1ccccc1` [GT-6045], with 188 µM (≈ 56.9 µg/mL).

By solubility is commonly meant the concentration that dissolves in the medium under given conditions. Read a low solubility as little dissolved substance.

The values are drawn from patent US20250250237A1, “ALKYLAMINE OR HETEROALKYLAMINE DERIVATIVES AS INHIBITORS OF NITRIC OXIDE SYNTHASES (NOS), PHARMACEUTICAL PRODUCTS THEREOF, AND METHODS THEREOF” (Gacter Inc., priority 2022, published 2025).
